# From patent US20140296143A1, “Angiotensin-(1-7) As A Chemoprevention Agent” (Wake Forest Innovations, priority 2008, published 2014)
# How the values were obtained:
# caspase-8 = assay: Caspase-8 activity in A549 cell lysates, fluorometric assay; assay type: cell-based, human; conditions: A549 cells, 100 nM; maximal at 16 and 24 h
# Procedure: The specificity of the activity of each caspase substrate was also verified by assays in the presence of specific inhibitors. […] Caspase-3 activity was measured by a fluorometric assay using Ac-DEVD-AFC (Acetylated-Asp-Glu-Val-Asp-7-amino-4-trifluoromethylcoumarin) (SEQ ID NO: 9) as a specific substrate for caspase-3 and Z-DEVD-CHO as a selective caspase-3 inhibitor. Caspase-8 activity was measured by a fluorometric assay using Ac-LETD-AFC (Acetylated-Leu-Glu-Thr-Asp-7-amino-4-trifluoromethylcoumarin) (SEQ ID NO: 10) as a specific substrate and Z-LETD-CHO as a selective caspase-8 inhibitor. The data are presented as relative fluorescence units (RFU).
# EA.hy.926 cells = assay: Tube formation of endothelial cells in Matrigel; assay type: cell-based, human; conditions: over the range of 0.5 to 100 nM
# Procedure: These cells are a transformed human endothelial cell line derived from umbilical vein endothelial cells. They retain their endothelial phenotype and were previously used to study angiogenesis.
# After a 16 h incubation period to allow tube formation, cultures were photographed and branch points were counted, to quantify tube formation.
# AT2 angiotensin receptor = biological target: T1, AT2 angiotensin receptor (Homo sapiens, UniProt P50052); conditions: cited from earlier work
# T1 sequence (P50052 1-363): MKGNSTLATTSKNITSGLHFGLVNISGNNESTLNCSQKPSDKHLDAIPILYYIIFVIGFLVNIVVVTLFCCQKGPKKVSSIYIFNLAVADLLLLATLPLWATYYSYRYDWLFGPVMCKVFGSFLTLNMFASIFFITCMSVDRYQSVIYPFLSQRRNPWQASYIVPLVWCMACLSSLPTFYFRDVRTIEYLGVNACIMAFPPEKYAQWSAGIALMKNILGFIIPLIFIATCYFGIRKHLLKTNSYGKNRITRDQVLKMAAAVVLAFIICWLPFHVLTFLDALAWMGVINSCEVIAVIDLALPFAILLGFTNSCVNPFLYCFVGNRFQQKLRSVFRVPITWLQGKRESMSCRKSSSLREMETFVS
# COX-1 mRNA = COX-1 mRNA in A549 cells; assay type: cell-based, human; conditions: quiescent A549 cells, 100 nM, 2, 4, or 8 h
# Procedure: For reverse-transcriptase real-time PCR, RNA was isolated from cells or tissue, using the TRIzol reagent (GIBCO Invitrogen Corp., Carlsbad, Calif.), as directed by the manufacturer. The RNA concentration and integrity were assessed using an Agilent 2100 Bioanalyzer with an RNA 6000 nano LabChip (Agilent Technologies, Palo Alto, Calif.). Approximately 1 μg of total RNA was reverse transcribed using avian myeloblastosis virus reverse transcriptase (RT) in a 20 μL mixture containing deoxyribonucleotides, random hexamers and RNase inhibitor in RT buffer. Heating the RT reaction product at 95° C. terminated the reaction. For real-time polymerase chain reaction (PCR), 2 μL of the resultant cDNA was added to TaqMan Universal PCR Master Mix (Applied Biosystems, Foster City, Calif.) with a gene-specific primer/probe set (Applied Biosystems, Foster City, Calif.) and amplification was performed on an ABI 7000 Sequence Detection System. The mixtures were heated at 50° C. for 2 min, at 95° C. for 10 min followed by 40 cycles at 95° C. for 15 sec and 60° C. for 1 min. […] The results were quantified as Ct values, where Ct is defined as the threshold cycle of PCR at which amplified product is first detected, and expressed as the ratio of target/control (Relative Gene Expression).
# [1] = adjuvant therapy for cytopenia during chemotherapy; Rodgers et al., 2005; cited from earlier work
# [2] = tested on: A549 human lung tumor xenografts; assay: A549 human lung tumor xenograft in athymic mice, intravenous infusion; assay type: in vivo, mouse
# Procedure: For reverse-transcriptase real-time PCR, RNA was isolated from cells or tissue, using the TRIzol reagent (GIBCO Invitrogen Corp., Carlsbad, Calif.), as directed by the manufacturer. The RNA concentration and integrity were assessed using an Agilent 2100 Bioanalyzer with an RNA 6000 nano LabChip (Agilent Technologies, Palo Alto, Calif.). Approximately 1 μg of total RNA was reverse transcribed using avian myeloblastosis virus reverse transcriptase (RT) in a 20 μL mixture containing deoxyribonucleotides, random hexamers and RNase inhibitor in RT buffer. Heating the RT reaction product at 95° C. terminated the reaction. For real-time polymerase chain reaction (PCR), 2 μL of the resultant cDNA was added to TaqMan Universal PCR Master Mix (Applied Biosystems, Foster City, Calif.) with a gene-specific primer/probe set (Applied Biosystems, Foster City, Calif.) and amplification was performed on an ABI 7000 Sequence Detection System. The mixtures were heated at 50° C. for 2 min, at 95° C. for 10 min followed by 40 cycles at 95° C. for 15 sec and 60° C. for 1 min. All reactions were performed in triplicate and 18S ribosomal RNA, amplified using the TaqMan Ribosomal RNA Control Kit (Applied Biosystems), served as an internal control. The results were quantified as Ct values, where Ct is defined as the threshold cycle of PCR at which amplified product is first detected, and expressed as the ratio of target/control (Relative Gene Expression).
# Quiescent A549 lung cancer cells or tumor tissue cut into approximately 1-2 mm^2 size pieces were homogenized in phosphate-buffered saline (PBS; 50 mM NaPO4, pH=7.2, 100 mM NaCl). Plasma membranes were isolated by centrifugation and solubilized by boiling in 3% SDS-10% B-mercaptoethanol. PBS was added to the membrane fraction to solubilize the proteins. The protein concentration was measured by a modification of the Lowry method. Solubilized protein (20 μg/well) from saline- and Ang-(1-7)-treated animals were separated by SDS-polyacrylamide gel electrophoresis and transferred to polyvinyl membranes (Amersham Pharmacia, Piscataway, N.J.). Non-specific binding was blocked with 5% blotto (5% evaporated milk, 0.1% Triton X-100 in Tris-buffered saline (TBS; 50 mM Tris-HCl, pH 7.4, 50 mM NaCl). The membranes were incubated with a COX-2 antibody (1:1000; Cayman Chemicals, Ann Arbor, Mich.) followed by a goat anti-rabbit antibody (1:1000; Amersham, Piscataway, N.J.) coupled to horseradish peroxidase. Chemiluminescence reagents were added to visualize the immunoreactive bands, which were quantified by densitometry. An antibody to actin (Sigma, St Louis, Mo.) served as the loading control.
# Male or female athymic mice (15-20 g, 2-4 weeks of age, Charles River Laboratory, Wilmington, Mass.) were housed in cages with HEPA-filtered air (12-hour light/dark cycle) and ad libitum access to food and autoclaved water. All procedures complied with the policies of the Wake Forest University Animal Care and Use Committee. Mice were inoculated subcutaneously in the lower left flank with approximately 1.9×10^6 A549 lung cancer cells or ZR-75-1 breast cancer cells suspended in 200 μL of cold Matrigel (BD Biosciences, Bedford, Mass.). […] The mice were anesthetized by inhalation with 1.5% isoflurane. […] The minipumps also contained heparin (25 U/mL) to maintain patency of the catheter. On day 28 of the infusion, the animals were anesthetized with halothane and sacrificed by decapitation. Alternatively, the mice received daily subcutaneous injections of Ang-(1-7) in saline or saline alone.
# Tumors were fixed with 4% paraformaldehyde for 24 h and incubated in 70% ethanol for 48 h prior to embedding in paraffin. The embedded tumors were cut into five micron thick sections and stained with hematoxylin and eosin to determine morphology. […]
# [3] = tested on: SK-MES-1 lung cancer cells; assay type: cell-based, human
# Procedure: Unless otherwise stated, cells were grown in DMEM with 10% fetal bovine serum (FBS), 100 μg/mL penicillin and 100 units/mL streptomycin in a humidified 37° C. incubator gassed with 5% CO2 and 95% room air. Cells were grown to subconfluence in either 24-well cluster plates or 100 mm dishes and made quiescent by treatment for 48 h with serum-depleted growth media, prior to the experiments outlined below to measure cell growth (^3H-thymidine incorporation), cell signaling or apoptosis.
# Subsequently, the cell monolayer was washed with cold phosphate-buffered saline (PBS; 50 mM NaPO4, 120 mM NaCl, pH=7.2). The adherent cells were precipitated with cold 10% TCA (4° C. for 30 min) and dissolved in 0.2% SDS in 0.1 N NaOH. Incorporated ^3H-thymidine was determined by liquid scintillation spectrometry, as previously described (Freeman, E. J. et al., Hypertension, 1996, 28:104-108). Growth inhibition was defined as a reduction in the amount of ^3H-thymidine incorporation as compared to the mitogen-stimulated controls.
# [4] = 24 μg/kg/h intravenous, 28 days, versus saline
# [5] = 28 days infusion, versus saline
smiles,measurement,setting,value
"CC[C@H](C)[C@H](NC(=O)[C@H](Cc1ccc(O)cc1)NC(=O)[C@@H](NC(=O)[C@H](CCCNC(=N)N)NC(=O)[C@@H](N)CC(=O)O)C(C)C)C(=O)N[C@@H](Cc1c[nH]cn1)C(=O)N1CCC[C@H]1C(=O)O [Ang-(1-7), Asp-Arg-Val-Tyr-Ile-His-Pro]",time-dependent increase in caspase-8 activity,caspase-8,about 2 fold
same,inhibition of tube formation,EA.hy.926 cells,dose-dependent inhibition
same,IC50 at the AT2 angiotensin receptor,"AT2 angiotensin receptor; Tallant et al., 1999",micromolar range
same,competition at the AT2 receptor,AT2 angiotensin receptor; literature,poor competitor
same,COX-1 mRNA,COX-1 mRNA,no change
same,adverse side effects in patients,[1],no adverse side effects
same,capsular vessel number,[2]; [4],no difference
same,down-regulation in VEGF mRNA in tumor tissue,[2]; [4],greater than 50%
same,reduction in intratumoral vessel formation,[2]; [4],> 75%
same,average tumor volume at end of infusion,"[2]; 24 μg/kg/h intravenous, day 28, n=5, saline 326.3±47.2",84.4±19.8 mm^3
same,"body weight, food and water consumption during infusion","[2]; 24 μg/kg/h, 28 days",maintained their body weight as well as food and water consumption
same,gross pathology of major organs following sacrifice,"[2]; 24 μg/kg/h, 28 days",no gross pathological abnormalities
same,APAF mRNA in tumor tissue,[2]; [5],significant increase
same,caspase 3 mRNA in tumor tissue,[2]; [5],significant increase
same,"COX-2 protein, density of COX-2 immunoreactivity as a function of actin","[2]; Western blot of tumor tissue, n=5, saline 0.99±0.12",0.41±0.09
same,tumor weight less than saline-infused,"[2]; at sacrifice, day 28",50%
same,tumor weight,"[2]; at sacrifice, day 28, n=5, saline 0.28±0.03",0.13 ± 0.01 g
same,proportion of apoptotic nuclei (cleaved caspase 3),"[2]; intravenous infusion, n=4-5, saline 18.8±9.4%",75±4.6%
same,proportion of proliferating cells (Ki67),"[2]; n=5, saline 73±[…]",49.5±9.4%
same,reduction of COX-2 protein,"[2]; tumor tissue, versus saline",59%
same,decrease in COX-2 mRNA,"[2]; tumor xenografts, RT real-time PCR, versus saline",57%
same,IC50,[3]; 48 h,0.4 nM
same,^3H-thymidine incorporation over time of treatment,"[3]; SK-MES-1, 1% FBS, daily addition of 100 nM",progressively reduced
